Data taken from patent publication US9732094B2, “Arylquinazolines” (Merck Patent GmbH, priority 2013, dated 2017).
Read-outs that look alike come from different tables or passages of the source.

Columns and labels:
Kv11.1 (hERG) = Kv11.1 (hERG) (Homo sapiens (Human), UniProt Q12809); assay: Kv11.1 (hERG) ion channel activity (patch clamp assay), HEK293 cells transfected with hERG gene; conditions: patch clamp, HEK293 transfected with hERG gene
DNA-PK = DNA-PK (Homo sapiens (Human), UniProt P78527); assay: DNA-PK assay (biochemical), flashplate 33P-ATP kinase assay; conditions: enzymatic; 5 μM ATP
How it was run: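 Reactions ran in streptavidin-coated flashplates and were halted by 200 mM EDTA, with a further 30 min at room temperature before saline washing.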

[1] = molecular target: DNA-PK phosphorylation at serine 2056 (Homo sapiens (Human), UniProt P78527); assay: DNA-PK phosphorylation at serine 2056 (cellular), bleomycin-treated HCT116 cells, ELISA; type: cell-based; conditions: cellular; HCT116 cells, 10 μM bleomycin, six hours; read-out: IC50 pDNA-PK
How it was run: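 Chemiluminescent ELISA quantified DNA-PK Ser2056 phosphorylation relative to total DNA-PKcs in HCT116 cells. Cells received compounds together with 10 μM bleomycin for 6 h; DMSO served as blank.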

Chain of Kv11.1 (hERG) (Q12809 whole entry): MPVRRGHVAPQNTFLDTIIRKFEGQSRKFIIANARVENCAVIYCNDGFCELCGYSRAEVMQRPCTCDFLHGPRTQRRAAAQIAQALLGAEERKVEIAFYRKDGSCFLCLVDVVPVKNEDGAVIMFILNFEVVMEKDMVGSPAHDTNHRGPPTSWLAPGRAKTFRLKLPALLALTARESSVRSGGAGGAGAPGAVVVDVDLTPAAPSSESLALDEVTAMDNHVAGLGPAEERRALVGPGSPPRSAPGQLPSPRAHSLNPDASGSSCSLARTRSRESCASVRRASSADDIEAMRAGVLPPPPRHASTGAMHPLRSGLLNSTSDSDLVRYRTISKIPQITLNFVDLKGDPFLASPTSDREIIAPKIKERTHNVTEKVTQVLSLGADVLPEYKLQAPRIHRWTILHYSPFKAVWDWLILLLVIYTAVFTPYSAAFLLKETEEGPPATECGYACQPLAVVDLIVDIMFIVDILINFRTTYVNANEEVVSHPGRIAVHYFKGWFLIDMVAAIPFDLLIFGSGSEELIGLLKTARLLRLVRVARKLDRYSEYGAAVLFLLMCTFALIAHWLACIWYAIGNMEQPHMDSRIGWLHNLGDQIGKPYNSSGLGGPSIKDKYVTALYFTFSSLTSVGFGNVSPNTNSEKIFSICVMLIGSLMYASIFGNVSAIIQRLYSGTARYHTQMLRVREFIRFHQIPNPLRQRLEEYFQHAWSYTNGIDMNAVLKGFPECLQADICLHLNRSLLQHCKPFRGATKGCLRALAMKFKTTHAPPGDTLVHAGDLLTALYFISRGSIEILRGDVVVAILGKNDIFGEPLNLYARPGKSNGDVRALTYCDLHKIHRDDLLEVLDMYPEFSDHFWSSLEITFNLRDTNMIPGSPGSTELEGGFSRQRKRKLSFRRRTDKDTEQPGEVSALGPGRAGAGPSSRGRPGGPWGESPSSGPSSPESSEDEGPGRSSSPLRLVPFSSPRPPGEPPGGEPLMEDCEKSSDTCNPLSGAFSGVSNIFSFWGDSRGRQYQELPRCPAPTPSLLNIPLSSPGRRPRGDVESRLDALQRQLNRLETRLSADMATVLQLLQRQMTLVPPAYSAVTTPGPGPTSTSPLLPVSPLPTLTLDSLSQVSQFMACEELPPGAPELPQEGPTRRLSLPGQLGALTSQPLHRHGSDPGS

OC(c1ccc(F)c(-c2ncnc3cc(N4CCOCC4)ccc23)c1)c1nccnc1Cl (stereo not drawn) [Example 54, (3-Chloro-pyrazin-2-yl)-[4-fluoro-3-(7-morpholin-4-yl-quinazolin-4-yl)phenyl]-methanol] was tested, and the Ki (Kv11.1 (hERG); Ki [Kv1.11 hERG]) was 15 to 25 µM, the IC50 (DNA-PK) was less than 0.003 µM and the IC50 [1] was less than 0.5 µM.
O=C(O)c1ccc(C(O)c2cc(-c3ncnc4cc(N5CCOCC5)ccc34)c(F)cc2Cl)nn1 (stereo not drawn) [Example 55, 6-{[2-Chloro-4-fluoro-5-(7-morpholin-4-yl-quinazolin-4-yl)phenyl]-hydroxymethyl}-pyridazine-3-carboxylic acid] gave a Ki (Kv11.1 (hERG); read-out: Ki [Kv1.11 hERG]) greater than 25 µM, an IC50 (DNA-PK) of 0.003 to 0.007 µM and an IC50 [1] of 10 to 30 µM.
Molecule OC(c1ccc2nccn2n1)c1cc(-c2ncnc3cc(N4CCOCC4)ccc23)c(F)cc1Cl (stereo not drawn) [Example 56, [2-Chloro-4-fluoro-5-(7-morpholin-4-yl-quinazolin-4-yl)phenyl]-imidazo[1,2-b]pyridazin-6-ylmethanol] has a Ki (Kv11.1 (hERG); Ki [Kv1.11 hERG]) of 10 to 15 µM, an IC50 (DNA-PK) of 0.003 to 0.007 µM and an IC50 [1] of 0.5 to 5 µM.
For OC(c1ccc2nccn2n1)c1cc(-c2ncnc3cc(N4CCOCC4)ccc23)c(F)cc1Cl (stereo not drawn) [Example 57, [2-Chloro-4-fluoro-5-(7-morpholin-4-yl-quinazolin-4-yl)phenyl]-imidazo[1,2-b]pyridazin-6-ylmethanol], the Ki (Kv11.1 (hERG); read-out: Ki [Kv1.11 hERG]) was 10 to 15 µM, the IC50 (DNA-PK) was less than 0.003 µM and the IC50 [1] was less than 0.5 µM.
COC(=O)c1ccc(C(O)c2cc(-c3ncnc4cc(N5CCOCC5)ccc34)c(F)cc2Cl)nn1 (stereo not drawn) [Example 58, 6-{[2-Chloro-4-fluoro-5-(7-morpholin-4-yl-quinazolin-4-yl)phenyl]-hydroxymethyl}-pyridazine-3-carboxylic acid methyl ester] was tested, and the Ki (Kv11.1 (hERG); read-out: Ki [Kv1.11 hERG]) was greater than 25 µM, the IC50 (DNA-PK) was 0.003 to 0.007 µM and the IC50 [1] was 5 to 10 µM.
Cn1nc(C(O)c2cc(-c3ncnc4cc(N5CCOCC5)ccc34)c(F)cc2Cl)ccc1=O (stereo not drawn) [Example 59, 6-{[2-Chloro-4-fluoro-5-(7-morpholin-4-yl-quinazolin-4-yl)phenyl]-hydroxymethyl}-2-methyl-2H-pyridazin-3-one] was tested, and the Ki (Kv11.1 (hERG); Ki [Kv1.11 hERG]) was 15 to 25 µM, the IC50 (DNA-PK) was less than 0.003 µM and the IC50 [1] was 0.5 to 5 µM.
With COc1cnc(C(O)c2ccc(F)c(-c3ncnc4cc(N5CCOCC5)ccc34)c2)cn1 (stereo not drawn) [Example 60, [4-Fluoro-3-(7-morpholin-4-yl-quinazolin-4-yl)phenyl]-(5-methoxypyrazin-2-yl)methanol] the Ki (Kv11.1 (hERG); Ki [Kv1.11 hERG]) was 15 to 25 µM, the IC50 (DNA-PK) was 0.007 to 0.03 µM and the IC50 [1] was 0.5 to 5 µM.
With COc1cnc(C(O)c2ccc(OC)c(-c3ncnc4cc(N5CCOCC5)ccc34)c2)cn1 (stereo not drawn) [Example 61, [4-methoxy-3-(7-morpholin-4-yl-quinazolin-4-yl)phenyl]-(5-methoxypyrazin-2-yl)methanol] the Ki (Kv11.1 (hERG); read-out: Ki [Kv1.11 hERG]) was greater than 25 µM, the IC50 (DNA-PK) was greater than 0.03 µM and the IC50 [1] was 10 to 30 µM.
NC(=O)c1ccc(C(O)c2cc(-c3ncnc4cc(N5CCOCC5)ccc34)c(F)cc2Cl)nn1 (stereo not drawn) [Example 62, 6-{[2-Chloro-4-fluoro-5-(7-morpholin-4-yl-quinazolin-4-yl)phenyl]-hydroxymethyl}-pyridazine-3-carboxylic acid amide] was tested, and the Ki (Kv11.1 (hERG); read-out: Ki [Kv1.11 hERG]) was greater than 25 µM, the IC50 (DNA-PK) was 0.003 to 0.007 µM and the IC50 [1] was 0.5 to 5 µM.
OC(c1ccc2nccn2n1)c1cc(-c2ncnc3cc(N4CCOCC4)ccc23)c(F)cc1Cl (stereo not drawn) [Example 63, [2-Chloro-4-fluoro-5-(7-morpholin-4-yl-quinazolin-4-yl)phenyl]-imidazo[1,2-b]pyridazin-6-ylmethanol] gave a Ki (Kv11.1 (hERG); read-out: Ki [Kv1.11 hERG]) of 10 to 15 µM, an IC50 (DNA-PK) of less than 0.003 µM and an IC50 [1] of 0.5 to 5 µM.
For OC(c1cc(-c2ncnc3cc(N4CCOCC4)ccc23)c(F)cc1Cl)c1nccnc1Cl (stereo not drawn) [Example 64, [2-Chloro-4-fluoro-5-(7-morpholin-4-yl-quinazolin-4-yl)phenyl]-(3-chloropyrazin-2-yl)-methanol], the Ki (Kv11.1 (hERG); Ki [Kv1.11 hERG]) was 10 to 15 µM, the IC50 (DNA-PK) was 0.003 to 0.007 µM and the IC50 [1] was less than 0.5 µM.
OC(c1ccc(F)c(-c2ncnc3cc(N4CCOCC4)ccc23)c1)c1cccnn1 (stereo not drawn) [Example 65, [4-Fluoro-3-(7-morpholin-4-yl-quinazolin-4-yl)phenyl]-pyridazin-3-ylmethanol] was tested, and the Ki (Kv11.1 (hERG); read-out: Ki [Kv1.11 hERG]) was greater than 25 µM, the IC50 (DNA-PK) was 0.007 to 0.03 µM and the IC50 [1] was 0.5 to 5 µM.
With COc1cnc(C(O)c2ccc(F)c(-c3ncnc4cc(N5CCOCC5)ccc34)c2)nc1 (stereo not drawn) [Example 66, [4-Fluoro-3-(7-morpholin-4-yl-quinazolin-4-yl)phenyl]-(5-methoxypyrimidin-2-yl)methanol] the Ki (Kv11.1 (hERG); read-out: Ki [Kv1.11 hERG]) was greater than 25 µM, the IC50 (DNA-PK) was 0.007 to 0.03 µM and the IC50 [1] was 10 to 30 µM.
In the case of COc1cnc(C(O)c2ccc(F)c(-c3ncnc4cc(N5CCOCC5)ccc34)c2)nc1 (stereo not drawn) [Example 67, [4-Fluoro-3-(7-morpholin-4-yl-quinazolin-4-yl)phenyl]-(5-methoxypyrimidin-2-yl)methanol], the Ki (Kv11.1 (hERG); read-out: Ki [Kv1.11 hERG]) is reported as greater than 25 µM, the IC50 (DNA-PK) is reported as 0.007 to 0.03 µM and the IC50 [1] is reported as 5 to 10 µM.
CN(C)c1ccc(C(O)c2ccc(F)c(-c3ncnc4cc(N5CCOCC5)ccc34)c2)nn1 (stereo not drawn) [Example 68, (6-Dimethylamino-pyridazin-3-yl)-[4-fluoro-3-(7-morpholin-4-yl-quinazolin-4-yl)phenyl]-methanol] gave a Ki (Kv11.1 (hERG); read-out: Ki [Kv1.11 hERG]) greater than 25 µM, an IC50 (DNA-PK) of 0.003 to 0.007 µM and an IC50 [1] of 5 to 10 µM.
COc1cnc(C(O)c2ccc(F)c(-c3ncnc4cc(N5CCOCC5)ccc34)c2)nc1 (stereo not drawn) [Example 69, [4-Fluoro-3-(7-morpholin-4-yl-quinazolin-4-yl)phenyl]-(5-methoxypyrimidin-2-yl)methanol] was tested, and the Ki (Kv11.1 (hERG); read-out: Ki [Kv1.11 hERG]) was greater than 25 µM, the IC50 (DNA-PK) was 0.003 to 0.007 µM and the IC50 [1] was 5 to 10 µM.
For Cc1ccc(C(O)c2ccc(F)c(-c3ncnc4cc(N5CCOCC5)ccc34)c2)nn1 (stereo not drawn) [Example 70, [4-Fluoro-3-(7-morpholin-4-yl-quinazolin-4-yl)phenyl]-(6-methylpyridazin-3-yl)methanol], the Ki (Kv11.1 (hERG); read-out: Ki [Kv1.11 hERG]) was greater than 25 µM, the IC50 (DNA-PK) was 0.003 to 0.007 µM and the IC50 [1] was 0.5 to 5 µM.
Work on COc1ccc([C@H](O)c2ccc(F)c(-c3ncnc4cc(N5CCOCC5)ccc34)c2)nn1 [Example 71, (R)-[4-Fluoro-3-(7-morpholin-4-yl-quinazolin-4-yl)phenyl]-(6-methoxypyridazin-3-yl)methanol] yielded a Ki (Kv11.1 (hERG); read-out: Ki [Kv1.11 hERG]) greater than 25 µM, an IC50 (DNA-PK) of less than 0.003 µM and an IC50 [1] of 0.5 to 5 µM.
Molecule COc1ccc([C@@H](O)c2ccc(F)c(-c3ncnc4cc(N5CCOCC5)ccc34)c2)nn1 [Example 72, (S)-[4-Fluoro-3-(7-morpholin-4-yl-quinazolin-4-yl)phenyl]-(6-methoxypyridazin-3-yl)methanol] has a Ki (Kv11.1 (hERG); read-out: Ki [Kv1.11 hERG]) greater than 25 µM, an IC50 (DNA-PK) of less than 0.003 µM and an IC50 [1] of 0.5 to 5 µM.
COc1ccc(C(OC)c2ccc(F)c(-c3ncnc4cc(N5CCOCC5)ccc34)c2)nn1 (stereo not drawn) [Example 73, 4-{2-Fluoro-5-[methoxy-(6-methoxy-pyridazin-3-yl)methyl]phenyl}-7-morpholin-4-yl-quinazoline] showed a Ki (Kv11.1 (hERG); read-out: Ki [Kv1.11 hERG]) greater than 25 µM, an IC50 (DNA-PK) of 0.003 to 0.007 µM and an IC50 [1] of 0.5 to 5 µM.
COc1ccc(C(O)c2ccc(F)c(-c3ncnc4cc(N5CCOCC5)ccc34)c2)nn1 (stereo not drawn) [Example 74, [4-Fluoro-3-(7-morpholin-4-yl-quinazolin-4-yl)phenyl]-(6-methoxypyridazin-3-yl)methanol] was tested, and the Ki (Kv11.1 (hERG); read-out: Ki [Kv1.11 hERG]) was greater than 25 µM, the IC50 (DNA-PK) was less than 0.003 µM and the IC50 [1] was less than 0.5 µM.
O=c1ccc(C(O)c2ccc(F)c(-c3ncnc4cc(N5CCOCC5)ccc34)c2)n[nH]1 (stereo not drawn) [Example 76, 6-{[4-Fluoro-3-(7-morpholin-4-yl-quinazolin-4-yl)phenyl]-hydroxymethyl}-2H-pyridazin-3-one] was tested, and the Ki (Kv11.1 (hERG); read-out: Ki [Kv1.11 hERG]) was greater than 25 µM, the IC50 (DNA-PK) was less than 0.003 µM and the IC50 [1] was 0.5 to 5 µM.
With OC(c1ccc(F)c(-c2ncnc3cc(N4CCOCC4)ccc23)c1)c1c(F)cncc1Cl (stereo not drawn) [Example 77, (3-Chloro-5-fluoro-pyridin-4-yl)-[4-fluoro-3-(7-morpholin-4-yl-quinazolin-4-yl)phenyl]-methanol] the Ki (Kv11.1 (hERG); Ki [Kv1.11 hERG]) was 10 to 15 µM, the IC50 (DNA-PK) was 0.003 to 0.007 µM and the IC50 [1] was less than 0.5 µM.
Molecule Cc1nccnc1C(O)c1ccc(F)c(-c2ncnc3cc(N4CCOCC4)ccc23)c1 (stereo not drawn) [Example 78, [4-Fluoro-3-(7-morpholin-4-yl-quinazolin-4-yl)phenyl]-(3-methylpyrazin-2-yl)-methanol] has a Ki (Kv11.1 (hERG); Ki [Kv1.11 hERG]) of 15 to 25 µM, an IC50 (DNA-PK) of 0.003 to 0.007 µM and an IC50 [1] of less than 0.5 µM.
CCOc1cnnc(C(O)c2ccc(F)c(-c3ncnc4cc(N5CCOCC5)ccc34)c2)c1 (stereo not drawn) [Example 79, (5-Ethoxypyridazin-3-yl)-[4-fluoro-3-(7-morpholin-4-yl-quinazolin-4-yl)phenyl]-methanol] showed a Ki (Kv11.1 (hERG); Ki [Kv1.11 hERG]) of 15 to 25 µM, an IC50 (DNA-PK) greater than 0.03 µM and an IC50 [1] of 5 to 10 µM.
Molecule OC(c1ccc(F)c(-c2ncnc3cc(N4CCOCC4)ccc23)c1)c1ncccc1C(F)(F)F (stereo not drawn) [Example 80, [4-Fluoro-3-(7-morpholin-4-yl-quinazolin-4-yl)-phenyl]-(3-trifluoro-methylpyridin-2-yl)-methanol] has a Ki (Kv11.1 (hERG); read-out: Ki [Kv1.11 hERG]) greater than 25 µM, an IC50 (DNA-PK) of 0.003 to 0.007 µM and an IC50 [1] of 0.5 to 5 µM.
With OC(c1ccc(F)c(-c2ncnc3cc(N4CCOCC4)ccc23)c1)c1ncccc1OC(F)F (stereo not drawn) [Example 81, (3-Difluoromethoxy-pyridin-2-yl)-[4-fluoro-3-(7-morpholin-4-yl-quinazolin-4-yl)-phenyl]methanol] the Ki (Kv11.1 (hERG); read-out: Ki [Kv1.11 hERG]) was greater than 25 µM, the IC50 (DNA-PK) was less than 0.003 µM and the IC50 [1] was less than 0.5 µM.
With Cc1nccnc1[C@@H](O)c1ccc(F)c(-c2ncnc3cc(N4CCOCC4)ccc23)c1 [Example 82] the Ki (Kv11.1 (hERG); read-out: Ki [Kv1.11 hERG]) was greater than 25 µM, the IC50 (DNA-PK) was 0.007 to 0.03 µM and the IC50 [1] was 0.5 to 5 µM.
Cc1nccnc1[C@H](O)c1ccc(F)c(-c2ncnc3cc(N4CCOCC4)ccc23)c1 [Example 83, (R)-[4-Fluoro-3-(7-morpholin-4-yl-quinazolin-4-yl)-phenyl]-(3-methyl-pyrazin-2-yl)methanol] gave a Ki (Kv11.1 (hERG); read-out: Ki [Kv1.11 hERG]) greater than 25 µM, an IC50 (DNA-PK) of less than 0.003 µM and an IC50 [1] of less than 0.5 µM.
Work on Cc1nccnc1[C@H](O)c1cc(-c2ncnc3cc(N4CCOCC4)ccc23)c(F)cc1F [Example 84, [2,4-Difluoro-5-(7-morpholin-4-yl-quinazolin-4-yl)-phenyl]-(3-methyl-pyrazin-2-yl)methanol] yielded a Ki (Kv11.1 (hERG); human, HEK293 cells stably transfected with the hERG gene, Ki [Kv1.11 hERG]) of 15 to 25 µM, an IC50 (DNA-PK) of 0.003 to 0.007 µM and an IC50 [1] of less than 0.5 µM.
